Laboratory results published in patent US9969775B2, “CGRP antagonist peptides” (Ferring B.V., priority 2015, dated 2018).
Numbered stars: 1 amine (or outer) side, 2 acyl side, 3 side chain; on linkers, the order of the positions; unused ones are H or OH. Bridge positions count the residues as written; N and C are the ends. Square brackets hold non-standard residues; d marks the D form. Peptide text beside a SMILES is read from it. * marks the point of attachment. Phe(3-CH2NH2) = O=C([C@H](Cc1cccc(CN[*:3])c1)N[*:1])[*:2]; Phe(3-CONH2) = NC(=O)c1cccc(C[C@H](N)C(=O)O)c1; Phe(2-CONH2) = NC(=O)c1ccccc1C[C@H](N)C(=O)O; Phe(4-CH2NH2) = NCc1ccc(C[C@H](N)C(=O)O)cc1; X13 = N#CN=C(N)NCC[C@H](N[*:1])C(=O)[*:2]; Phe(3-CN) = N#Cc1cccc(C[C@H](N)C(=O)O)c1; X14 = CCN(CC)CCC[C@H](N[*:1])C(=O)[*:2]; Picolinoyl(5-F) = O=C(c1ccc(F)cn1)*; Orn(iPr) = CC(C)NCCC[C@H](N)C(=O)O; Benzoyl(4-F) = O=C(c1ccc(F)cc1)*; Oxazole2carbonyl = O=C(c1ncco1)*; 3Pal = N[C@@H](Cc1cccnc1)C(=O)O; Picolinoyl = O=C(c1ccccn1)*; ΔPro = O=C(O)[C@@H]1C=CCN1; Orn = NCCC[C@H](N)C(=O)O; X8 = CC(C)NCCOCCOCC(=O)*; X7 = O=C(c1cc(F)ccn1)*; X1 = O=C(c1ncccc1F)*; X6 = O=C(c1ccncn1)*

What was measured:
[1] = target: T1, hCGRP receptor (CALCRL:RAMP1) (Homo sapiens, UniProt O60894+Q16602); assay: CGRP receptor antagonist activity measured by cAMP assay (HTRF); assay type: cell-based; settings: agonist human α-CGRP; for Emax: % MPE: percent of the maximal possible effect, read-out: hCGRP-R Efficacy Antag (%) Ave; for IC50: GeneBLAzer CALCRL:RAMP1-CRE-bla Freestyle 293F cells, 30 minutes, read-out: hCGRP-R IC50 Ave
T1 construct: host or cells: GeneBLAzer CALCRL:RAMP1-CRE-bla Freestyle 293F
T1 sequence (Q16602 23-461): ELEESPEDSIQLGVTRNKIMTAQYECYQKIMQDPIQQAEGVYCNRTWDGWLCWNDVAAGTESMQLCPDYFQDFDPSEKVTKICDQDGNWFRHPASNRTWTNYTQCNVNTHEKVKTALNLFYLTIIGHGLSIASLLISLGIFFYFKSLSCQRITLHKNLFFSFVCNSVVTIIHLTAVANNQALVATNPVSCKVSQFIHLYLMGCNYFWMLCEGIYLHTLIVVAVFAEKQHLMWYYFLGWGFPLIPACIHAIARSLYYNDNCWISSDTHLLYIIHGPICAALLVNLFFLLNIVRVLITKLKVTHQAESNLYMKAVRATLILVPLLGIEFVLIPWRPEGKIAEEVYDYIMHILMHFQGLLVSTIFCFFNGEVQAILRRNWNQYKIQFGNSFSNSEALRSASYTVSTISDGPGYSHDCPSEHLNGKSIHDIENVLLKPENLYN
T1 sequence (O60894 27-148): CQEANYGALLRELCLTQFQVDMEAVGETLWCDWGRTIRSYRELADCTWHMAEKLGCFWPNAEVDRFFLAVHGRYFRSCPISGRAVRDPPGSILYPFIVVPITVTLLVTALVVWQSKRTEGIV
Description: Example 6: CGRP Receptor Antagonist Activity Measured by cAMP Assay
CGRP receptor agonists increase intracellular cyclic adenosine mono-phosphate (cAMP). CGRP receptor antagonists can reduce the agonist effect. Antagonist activity was assessed by measurement of cyclic adenosine mono-phosphate (cAMP) using cell line stably expressing the hCGRP receptor (GeneBLAzer® CALCRL:RAMP1-CRE-bla Freestyle™ 293F, Invitrogen). hCGRP receptor expressing cells were maintained in DMEM high-glucose with GlutaMAX™ containing 10% (v/v) FBS, 0.1 mM NEAA, 25 mM HEPES, 5 ug/ml Blasticidin, 100 ug/ml Hygromycin, and 400 ug/ml Geneticin at 37° C. under 5% CO2 in a humidified atmosphere. For cAMP measurement, cells were washed once with 5 ml 1×PBS, cell maintenance media was replaced with compound buffer ((CB): DMEM containing 0.1% BSA and 0.5 mM IBMX), and flasks were incubated for 1 hour at 37° C. under 5% CO2 in a humidified atmosphere. Cells were removed from culture flasks using non-enzymatic cell dissociation buffer and harvested in CB. The reaction was performed in 384 well white small volume plates (Greiner) at a density of 10,000 cells/well. Cells were exposed to varying concentrations of antagonist compounds for 30 minutes in the presence of a fixed concentration of agonist (human α-CGRP). cAMP levels were measured using an HTRF (homogeneous time resolved fluorescence)-based competitive cAMP immunoassay (cAMP Dynamic 2 Kit, Cisbio), according to the manufacturer's instructions. […] Reported parameters include antagonist potency IC50 (the concentration causing half-maximal inhibition of the agonist response for antagonist compounds) and efficacy (% MPE: percent of the maximal possible effect).

[2] = target: T2, hAM2 receptor (CALCRL:RAMP3) (Homo sapiens, UniProt O60896+Q16602); assay: AM2 receptor antagonist activity measured by cAMP assay (HTRF); assay type: cell-based; settings: for Emax: % MPE: percent of the maximal possible effect, read-out: hAM2-R Efficacy Antag (%) Ave; for Emax / IC50: agonist human adrenomedullin; for IC50: GeneBLAzer CALCRL:RAMP3-CRE-bla Freestyle 293F cells, read-out: hAM2-R IC50 Ave; for selectivity ratio CGRP/AM2: selectivity ratio for hCGRP over hAM2, calculated from the IC50 values
T2 construct: expressed in transfected cells; host or cells: GeneBLAzer CALCRL:RAMP3-CRE-bla Freestyle 293F
T2 sequence (Q16602 23-461): as the sequence (Q16602 23-461) above
T2 sequence (O60896 24-148): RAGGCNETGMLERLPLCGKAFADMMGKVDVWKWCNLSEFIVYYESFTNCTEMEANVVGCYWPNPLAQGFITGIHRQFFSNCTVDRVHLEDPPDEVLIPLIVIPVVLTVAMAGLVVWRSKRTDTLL

| SMILES | Emax [1] [%] | IC50 [1] [nM] | Emax [2] [%] | IC50 [2] [nM] | selectivity ratio CGRP/AM2 [2] |
| --- | --- | --- | --- | --- | --- |
| CC(C)NCCOCCOCC(=O)NCCC[C@@H]1NC(=O)[C@@H](NC(=O)[C@H](Cc2ccc(O)cc2)NC(=O)[C@H](NC(=O)c2ccc(F)cn2)C(C)C)CSSC[C@@H](C(=O)N[C@@H](Cc2cccnc2)C(N)=O)NC(=O)[C@H](Cc2ccccc2)NC(=O)[C@@H]2CCCN2C(=O)CNC(=O)[C@H](C(C)C)NC(=O)[C@H](CC(=O)O)NC1=O [Compound 13, Picolinoyl(5-F)-D-Val-Tyr-c(Cys-Orn(CO—CH2—(O—(CH2)2)2—NH-iPr)-Asp-Val-Gly-Pro-Phe-Cys)-3Pal-NH2] ({Picolinoyl(5-F)}-[dV]YC[Orn](X8)DVGPFC[3Pal]-NH2; disulfide 3-10) | 100 | 0.1 | 100 | 26 | 249 |
| CC(C)NCCC[C@@H]1NC(=O)[C@@H](NC(=O)[C@H](Cc2ccc(O)cc2)NC(=O)[C@H](NC(=O)c2ccc(F)cn2)C(C)C)CSSC[C@@H](C(=O)N[C@@H](Cc2cccnc2)C(N)=O)NC(=O)[C@H](Cc2ccccc2)NC(=O)[C@@H]2CCCN2C(=O)CNC(=O)[C@H](C(C)C)NC(=O)[C@H](CC(=O)O)NC1=O [Compound 14, Picolinoyl(5-F)-D-Val-Tyr-c(Cys-Orn(iPr)-Asp-Val-Gly-Pro-Phe-Cys)-3Pal-NH2] ({Picolinoyl(5-F)}-[dV]YC[Orn(iPr)]DVGPFC[3Pal]-NH2; disulfide 3-10) | 100 | 0.12 | 100 | 20 | 167 |
| CC(C)[C@@H]1NC(=O)[C@H](CC(=O)O)NC(=O)[C@H](CCCNC(=N)N)NC(=O)[C@@H](NC(=O)[C@H](Cc2ccccc2C(N)=O)NC(=O)[C@H](NC(=O)c2ccc(F)cc2)C(C)C)CSSC[C@@H](C(=O)N[C@@H](Cc2cccnc2)C(N)=O)NC(=O)[C@H](Cc2ccccc2)NC(=O)[C@@H]2CCCN2C(=O)CNC1=O [Compound 15] ({Benzoyl(4-F)}-[dV][Phe(2-CONH2)]CRDVGPFC[3Pal]-NH2; disulfide 3-10) | 100 | 0.1 | 99 | 58 | 610 |
| CC(C)[C@@H]1NC(=O)[C@H](CC(=O)O)NC(=O)[C@H](CCCNC(=N)N)NC(=O)[C@@H](NC(=O)[C@H](Cc2ccc(O)cc2)NC(=O)[C@H](NC(=O)c2ccncn2)C(C)C)CSSC[C@@H](C(=O)N[C@@H](Cc2cccnc2)C(N)=O)NC(=O)[C@H](Cc2ccccc2)NC(=O)[C@@H]2CCCN2C(=O)CNC1=O [Compound 16] (X6-[dV]YCRDVGPFC[3Pal]-NH2; disulfide 3-10) | 100 | 0.07 | 101 | 6.8 | 93 |
| CC(C)[C@@H]1NC(=O)[C@H](CC(=O)O)NC(=O)[C@H](CCCNC(=N)N)NC(=O)[C@@H](NC(=O)[C@H](Cc2ccc(O)cc2)NC(=O)[C@H](NC(=O)c2ncccc2F)C(C)C)CSSC[C@@H](C(=O)N[C@@H](Cc2cccnc2)C(N)=O)NC(=O)[C@H](Cc2ccccc2)NC(=O)[C@@H]2CCCN2C(=O)CNC1=O [Compound 17] (X1-[dV]YCRDVGPFC[3Pal]-NH2; disulfide 3-10) | 100 | 0.05 | 100 | 7.1 | 148 |
| CC(C)[C@@H]1NC(=O)[C@H](CC(=O)O)NC(=O)[C@H](CCCNC(=N)N)NC(=O)[C@@H](NC(=O)[C@H](Cc2ccc(O)cc2)NC(=O)[C@H](NC(=O)c2cc(F)ccn2)C(C)C)CSSC[C@@H](C(=O)N[C@@H](Cc2cccnc2)C(N)=O)NC(=O)[C@H](Cc2ccccc2)NC(=O)[C@@H]2CCCN2C(=O)CNC1=O [Compound 18] (X7-[dV]YCRDVGPFC[3Pal]-NH2; disulfide 3-10) | 100 | 0.16 | 98 | 8.1 | 52 |

Second part, the compound after the results:

| Emax [1] [%] | IC50 [1] [nM] | Emax [2] [%] | IC50 [2] [nM] | selectivity ratio CGRP/AM2 [2] | SMILES |
| --- | --- | --- | --- | --- | --- |
| 100 |  | 100 |  |  | CC(C)[C@@H]1NC(=O)[C@H](CC(=O)O)NC(=O)[C@H](CCNC(N)=NC#N)NC(=O)[C@@H](NC(=O)[C@H](Cc2ccc(O)cc2)NC(=O)[C@H](NC(=O)c2ccc(F)cc2)C(C)C)CSSC[C@@H](C(=O)N[C@@H](Cc2cccnc2)C(N)=O)NC(=O)[C@H](Cc2ccccc2)NC(=O)[C@@H]2CCCN2C(=O)CNC1=O [Compound 19, Bz(4-F)-D-Val-Tyr-c(Cys-norArg(CN)-Asp-Val-Gly-Pro-Phe-Cys)-3Pal-NH2] ({Benzoyl(4-F)}-[dV]YC[X13]DVGPFC[3Pal]-NH2; disulfide 3-10) |
| 100 | 0.18 | 100 | 54 | 309 | CC(C)[C@@H]1NC(=O)[C@H](CC(=O)O)NC(=O)[C@H](CCCNC(=N)N)NC(=O)[C@@H](NC(=O)[C@H](Cc2ccc(O)cc2)NC(=O)[C@H](NC(=O)c2ccc(F)cc2)C(C)C)CSSC[C@@H](C(=O)N[C@@H](Cc2cccnc2)C(N)=O)NC(=O)[C@H](Cc2ccc(CN)cc2)NC(=O)[C@@H]2CCCN2C(=O)CNC1=O [Compound 20, Bz(4-F)-D-Val-Tyr-c(Cys-Arg-Asp-Val-Gly-Pro-Phe(4-CH2NH2)-Cys)-3Pal-NH2] ({Benzoyl(4-F)}-[dV]YCRDVGP[Phe(4-CH2NH2)]C[3Pal]-NH2; disulfide 3-10) |
| 100 | 0.13 | 99 | 33 | 258 | CC(C)[C@@H]1NC(=O)[C@H](CC(=O)O)NC(=O)[C@H](CCCNC(=N)N)NC(=O)[C@@H](NC(=O)[C@H](Cc2ccc(O)cc2)NC(=O)[C@H](NC(=O)c2ccc(F)cc2)C(C)C)CSSC[C@@H](C(=O)N[C@@H](Cc2cccnc2)C(N)=O)NC(=O)[C@H](Cc2cccc(C#N)c2)NC(=O)[C@@H]2CCCN2C(=O)CNC1=O [Compound 21, Bz(4-F)-D-Val-Tyr-c(Cys-Arg-Asp-Val-Gly-Pro-Phe(3-CN)-Cys)-3Pal-NH2] ({Benzoyl(4-F)}-[dV]YCRDVGP[Phe(3-CN)]C[3Pal]-NH2; disulfide 3-10) |
| 100 | 0.19 | 101 | 33 | 175 | CC(C)[C@@H]1NC(=O)[C@H](CC(=O)O)NC(=O)[C@H](CCCNC(=N)N)NC(=O)[C@@H](NC(=O)[C@H](Cc2cccc(CN)c2)NC(=O)[C@H](NC(=O)c2ccc(F)cc2)C(C)C)CSSC[C@@H](C(=O)N[C@@H](Cc2cccnc2)C(N)=O)NC(=O)[C@H](Cc2ccc(O)cc2)NC(=O)[C@@H]2C=CCN2C(=O)CNC1=O [Compound 22, Bz(4-F)-D-Val-Phe(3-CH2NH2)-c(Cys-Arg-Asp-Val-Gly-Dhp-Tyr-Cys)-3Pal-NH2] ({Benzoyl(4-F)}-[dV][Phe(3-CH2NH2)]CRDVG[ΔPro]YC[3Pal]-NH2; disulfide 3-10) |
| 100 | 0.05 | 100 | 21 | 400 | CC(C)[C@@H]1NC(=O)[C@H](CC(=O)O)NC(=O)[C@H](CCCNC(=N)N)NC(=O)[C@@H](NC(=O)[C@H](Cc2cccc(CN)c2)NC(=O)[C@H](NC(=O)c2ncco2)C(C)C)CSSC[C@@H](C(=O)N[C@@H](Cc2cccnc2)C(N)=O)NC(=O)[C@H](Cc2cccc(C(N)=O)c2)NC(=O)[C@@H]2C=CCN2C(=O)CNC1=O [Compound 23, Oxazole-2-carbonyl-D-Val-Phe(3-CH2NH2)-c(Cys-Arg-Asp-Val-Gly-Dhp-Phe(3-Cbm)-Cys)-3Pal-NH2] (Oxazole2carbonyl-[dV][Phe(3-CH2NH2)]CRDVG[ΔPro][Phe(3-CONH2)]C[3Pal]-NH2; disulfide 3-10) |
| 100 | 0.11 | 98 | 128 | 1213 | CCN(CC)CCC[C@@H]1NC(=O)[C@@H](NC(=O)[C@H](Cc2ccc(O)cc2)NC(=O)[C@H](NC(=O)c2ccccn2)C(C)C)CSSC[C@@H](C(=O)N[C@@H](Cc2cccnc2)C(N)=O)NC(=O)[C@H](Cc2ccccc2)NC(=O)[C@@H]2CCCN2C(=O)CNC(=O)[C@H](C(C)C)NC(=O)[C@H](CC(=O)O)NC1=O [Compound 24, Picolinoyl-D-Val-Tyr-c(Cys-Orn(Et2)-Asp-Val-Gly-Pro-Phe-Cys)-3Pal-NH2] (Picolinoyl-[dV]YC[X14]DVGPFC[3Pal]-NH2; disulfide 3-10) |
